Reference: publication PMC11680018, “Study of Cytotoxicity of Spiro-Fused [3-Azabicyclo[3.1.0]hexane]oxindoles and Cyclopropa[a]pyrrolizidine-oxindoles Against Tumor Cell Lines” (Pharmaceuticals, 2024)
Several values for one entry are separate records, joined by “and”; a condition that tells them apart may be missing. Identical values can stand only once. Like-named read-outs stand apart in the source and are kept apart here.

Experiments:
[1] = test system: K562, Jurkat, HeLa, Sk-mel-2, MCF-7 and CT26 cell lines; assay: MTS cell proliferation assay, panel of cell lines (summary statements); format: cell-based
Method: Cancer cell lines are valuable in vitro model systems that are widely used in cancer research and drug discovery. Their use is mainly linked to their possibility to provide for experimental purposes an unlimited source of biological material. Here, the 24 and 72 h in vitro MTS assay was used to determine the antiproliferative activity of synthesized spiro-fused cyclopropa[a]pyrrolizidine-2,3′-oxindoles and [3-azabicyclo[3.1.0]hexane]-oxindoles against human erythroleukemia (K562), acute T cell leukemia (Jurkat), cervical carcinoma (HeLa), melanoma (Sk-mel-2), breast cancer adenocarcinoma (MCF-7) as well as mouse colon carcinoma (CT26) cell lines. […] The full results of these investigations are presented in the Supporting Information Figures S1–S6. […] An evaluation of the cytotoxicity of the selected compounds towards normal cells (peripheral blood mononuclear cells) was performed additionally to understand their respective relative selectivities. The selectivity index was obtained using the ratio of measured cytotoxicity between the PBMC cells and each of the cancer cell lines, and the results are presented in Table 3.
The human erythroleukemia (K-562), cervical carcinoma (HeLa) as well as mouse colon carcinoma (CT26) cell lines were obtained from the Bank of Cell Cultures of the Institute of Cytology of the Russian Academy of Sciences; the human melanoma (Sk-mel-2) cell line was obtained from the Bank of Cell Cultures of the Institute of Cytology and Genetics, Siberian Branch of the Russian Academy of Sciences. The acute T cell leukemia (Jurkat) cell line was obtained from the Bank of Cell Cultures of the Institute of Immunology of the Russian Academy of Medical Sciences. The peripheral blood mononuclear cells (PBMC) were isolated from the blood of healthy donors. K-562, Jurkat, MCF-7, PBMC and CT26 cells were grown on RPMI medium (Hyclone, GE Healthcare Life Sciences, Logan, UT, USA) supplemented with 10% (v/v) fetal bovine serum (Hyclone, GE Healthcare Life Sciences, Logan, UT, USA) and gentamicin (Sigma-Aldrich, St. Louis, MO, USA) at 37 °C in a humidified atmosphere with 5% CO2. HeLa and Sk-mel-2 cells were cultured with the same supplements and conditions in DMEM medium (Hyclone, GE Healthcare Life Sciences, Logan, UT, USA).
To evaluate the in vitro toxicity of the compounds synthesized, cells were seeded into 96-well plates at a density of 5 × 10^3 cells per well. On the next day, the tested compounds were added to the wells at concentrations ranging from 1 to 30 μg/mL, followed by incubation for 1 and 3 days. Cell proliferation was determined by adding 20 μL of MTS reagent (BioVision, Milpitas, CA, USA) stock solution per well. The plates were incubated for 2 h at 37 °C in a humidified, 5% CO2 atmosphere. The plates were then read at 495 nm using a plate spectrophotometer (Multiskan GO, Thermo Fisher Scientific, Waltham, MA, USA). All samples were measured in triplicate.

[2] = test system: human melanoma (Sk-mel-2) cell line; assay: Cell motility by scratch test; format: cell-based; conditions: 10 μg/mL, 36 h, serum-free DMEM; nontreated cells 69.5 ± 17.2
Method: To assess the potential ability of spiro-fused [3-azabicyclo[3.1.0]hexane]oxindoles 4, 11, 12, 18, 24 and cyclopropa[a]pyrrolizidine-2,3′-oxindole 2 to inhibit metastasis associated with cell motility, a scratch test was performed on the human melanoma (Sk-mel-2) cell line. Different fields were analyzed by bright field, and each scratch area was photographed at 0 and 36 h for non-toxic and fast cell visualization. Nontreated Sk-mel-2 cells filled 69.5 ± 17.2, 41.5 ± 5.3, 59.7 ± 8.1, 49.3 ± 5.3, 43.0 ± 12.6, 26.1 ± 2.5 and 55.9 ± 8.6% of the scratched strip while under treatment with spiro-fused oxindole derivatives 2, 4, 11, 12, 18 and 24 cells, respectively.
Cells were seeded at a density of 5 × 10^5 cells per dish onto petri dishes and grown to confluency. A 200 μL pipette tip was used to make scratch wounds and detached cells were removed after that by washing with phosphate-buffered saline. Culture media was replaced with serum-free DMEM in order to inhibit cell proliferation. Compounds to be screened were added at a dose of 10 μg/mL to the cultures and incubated for 36 h. Different fields were analyzed by bright field, and each scratch area was photographed at 0 and 36 h. Images were captured using an Axio Observer Z1 confocal microscope (Carl Zeiss MicroImaging GmbH, Jena, Germany). The percent of wound closure in five randomly chosen fields was calculated with ImageJ software, 1.52v.

[3] = test system: K562 cells; assay: Cell cycle analysis by flow cytometry; format: cell-based, human; conditions: 24 h; for K562 cells in SubG1 phase: control 4.5 ± 0.9; for K562 cells in G2/M phase: control 23.1 ± 1.7; for K562 cells in S phase: control 31.9 ± 1.0; for K562 cells in G0/G1 phase: control 40.5 ± 1.3; for Total percentage of K562 cells in the SubG1 and G0/G1 phases: control 45.0%
Source text: Since growth inhibition may be a result of cell cycle arrest at a particular point, the specific antiproliferative activity of several cycloadducts was further evaluated by flow cytometry to study their impact on the progression of the cell cycle in K562 cells. The assay utilizes propidium iodide-based staining of DNA content to distinguish and measure the accumulation of cells in each cell cycle phase (SubG, G0/G1, S and G2/M).
The distribution of K562 cells in the G0/G1-, S- and G2/M-phases of the cell cycle was obtained by quantification of DNA content using flow cytometry in DAPI-stained cells. Briefly, cells were seeded at a density of 5 × 10^4 cells per well in 24-well plates. […] After incubation with drugs, the cells were harvested by pipetting. This was followed by treatment with 0.2 mg/mL saponin (Fluka, Waltham, MA, USA) and 0.05 mg/mL DAPI (Thermo scientific, Rockford, IL, USA). After washing, the samples were analyzed using a standard flow cytometer (BD FACSCanto II, Becton Dickinson, San Jose, CA, USA). A total of 10,000 events were acquired for the samples. Data processing was performed using the BD FACSDiva 9.0 software.

[4] = 72 h, range over four cell lines and compounds, read-out: IC50 against the Jurkat, K-562, HeLa and Sk-mel-2 cell lines

| SMILES | IC50 [1, 4] [µM] | Part of the scratched strip filled by Sk-mel-2 cells [2] [%] | K562 cells in SubG1 phase ([3]; 5 μg/mL) [%] | K562 cells in G2/M phase ([3]; 5 μg/mL) [%] | K562 cells in S phase ([3]; 5 μg/mL) [%] | K562 cells in G0/G1 phase ([3]; 5 μg/mL) [%] | K562 cells in SubG1 phase ([3]; 10 μg/mL) | K562 cells in G2/M phase ([3]; 10 μg/mL) [%] | K562 cells in S phase ([3]; 10 μg/mL) [%] | K562 cells in G0/G1 phase ([3]; 10 μg/mL) | Total percentage of K562 cells in the SubG1 and G0/G1 phases ([3]; 10 μg/mL) | K562 cells in SubG1 phase ([3]; 20 μg/mL) [%] | K562 cells in G2/M phase ([3]; 20 μg/mL) [%] | K562 cells in S phase ([3]; 20 μg/mL) [%] | K562 cells in G0/G1 phase ([3]; 20 μg/mL) [%] | IC50 ([1]; range over cell lines, except for the breast cancer cell line, read-out: IC50 over the tested cell lines) |
| --- | --- | --- | --- | --- | --- | --- | --- | --- | --- | --- | --- | --- | --- | --- | --- | --- |
| CSCCC1NC2(C(=O)Nc3ccccc32)C2(c3ccccc3)C(c3ccccc3)C12c1ccccc1 (stereo not shown) [Compound 24] | 2 to 10 | 55.9 ± 8.6 |  |  |  |  |  |  |  |  |  |  |  |  |  |  |
| COC(=O)C1C2(c3ccccc3)C(Cc3ccc(O)cc3)NC3(C(=O)Nc4ccccc43)C12c1ccccc1 (stereo not shown) [Compound 17] |  |  | 2.5 ± 0.3 | 16.7 ± 1.0 | 25.1 ± 0.4 | 55.6 ± 0.3 | 5.3 ± 0.4% | 8.8 ± 0.4 | 14.3 ± 0.1 | 71.5 ± 0.5% | 74.0–77.5% | 1.8 ± 0.2 | 7.2 ± 0.3 | 16.4 ± 0.5 | 74.5 ± 0.8 |  |
| NC(=O)CC1NC2(C(=O)Nc3ccccc32)C2(c3ccccc3)C(c3ccccc3)C12c1ccccc1 (stereo not shown) [Compound 18] | 2 to 10 | 26.1 ± 2.5 | 3.2 ± 0.1 | 14.4 ± 0.5 | 31.4 ± 0.1 | 51.0 ± 0.7 | 3.9 ± 0.2% | 7.0 ± 0.4 | 19.0 ± 0.6 | 70.1 ± 0.5% | 74.0–77.5% | 3.6 ± 0.1 | 8.6 ± 0.3 | 22.8 ± 0.4 | 65.0 ± 0.4 |  |
| CC[C@H](C)C1NC2(C(=O)Nc3ccccc32)C2(c3ccccc3)C(C(=O)OC)C12c1ccccc1 (stereo partly shown) [Compound 4] | 2 to 10 | 59.7 ± 8.1 | 4.3 ± 0.2 | 16.5 ± 0.2 | 26.6 ± 0.7 | 52.6 ± 0.7 | 4.8 ± 0.5% | 11.9 ± 0.6 | 26.4 ± 0.3 | 56.9 ± 0.6% |  | 4.9 ± 0.2 | 6.9 ± 0.4 | 17.4 ± 0.4 | 71.2 ± 0.4 |  |
| CC(C)C1NC2(C(=O)Nc3ccccc32)C2(c3ccccc3)C(c3ccccc3)C12c1ccccc1 (stereo not shown) [Compound 8] | 2 to 10 |  | 2.1 ± 0.1 | 9.2 ± 0.3 | 25.7 ± 0.1 | 63.1 ± 0.4 | 4.1 ± 0.2% | 5.9 ± 0.2 | 16.6 ± 0.2 | 73.5% and 73.5 ± 0.5% | 74.0–77.5% | 3.6 ± 0.2 | 7.1 ± 0.1 | 17.0 ± 0.2 | 72.4 ± 0.2 |  |
| O=C1Nc2ccc([N+](=O)[O-])cc2C12N1CCCC1C1(c3ccccc3)C(c3ccccc3)C12c1ccccc1 (stereo not shown) [Compound 2] |  | 41.5 ± 5.3 | 5.3 ± 0.3 | 17.4 ± 0.4 | 29.5 ± 0.6 | 47.7 ± 0.5 | 7.7% and 7.7 ± 0.4% | 7.8 ± 0.3 | 15.6 ± 0.4 | 68.8 ± 0.5% | 74.0–77.5% | 5.8 ± 0.3 | 7.3 ± 0.2 | 14.5 ± 0.2 | 72.5 ± 0.5 | 2 µg/mL to 12 µg/mL and 4 µM to 23 µM |
